Measured values: patent US20150105252A1, “SUBSTITUTED PYRAZOLES AS HERBICIDES” (E I DU PONT DE NEMOURS AND COMPANY, priority 2013, published 2015)

Legend:
canarygrass = experiment: Test D preemergence; type: in vivo, Phalaris minor; settings: scale 0 to 100
In short: (§1)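 Scores of 0 (no effect) to 100 (complete control) come from visual comparison with untreated plants 14–21 days after spraying. Applications were made pre-emergence to silt loam or post-emergence to plants 2–18 cm tall.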

deadnettle = experiment: Test D preemergence; type: in vivo, Lamium amplexicaule; settings: scale 0 to 100
In short: as §1

radish, wild [1] = experiment: Test D preemergence; type: in vivo, Raphanus raphanistrum; settings: scale 0 to 100
In short: as §1

foxtail, green = experiment: Test D postemergence; type: in vivo, Setaria viridis; settings: scale 0 to 100
In short: as §1

pigweed = experiment: Test D postemergence; type: in vivo, Amaranthus retroflexus; settings: scale 0 to 100
In short: as §1

buckwheat, wild = experiment: Test D postemergence; type: in vivo, Polygonum convolvulus; settings: scale 0 to 100
In short: as §1

oat, wild = experiment: Test D postemergence; type: in vivo, Avena fatua; settings: scale 0 to 100
In short: as §1

radish, wild [2] = experiment: Test D postemergence; type: in vivo, Raphanus raphanistrum; settings: scale 0 to 100
In short: as §1

lambsquarters = experiment: Test F preemergence; type: in vivo, Chenopodium album
In short: (§2)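 Plant response is scored by eye relative to controls on a 0 to 100 scale, where 100 means complete control. Preemergence applications were made to seeded silt loam; postemergence ones to seedlings 2 to 18 cm high. Greenhouse holding time was 14 to 21 days.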

wild poinsettia = experiment: Test F preemergence; type: in vivo, Euphorbia heterophylla
In short: as §2

fall panicum = experiment: Test F preemergence; type: in vivo, Panicum dichotomiflorum
In short: as §2

goosegrass = experiment: Test F preemergence; type: in vivo, Eleusine indica
In short: as §2

southern sandbur = experiment: Test F preemergence; type: in vivo, Cenchrus echinatus
In short: as §2

Italian ryegrass = experiment: Test F preemergence; type: in vivo, Lolium multiflorum
In short: as §2

[3] = Preemergence, 62 g ai/ha, scale 0 to 100
[4] = Preemergence, 125 g ai/ha, scale 0 to 100
[5] = preemergence, 8 g ai/ha, scale 0 to 100, 100 is complete control

Structure (SMILES): CCOc1cc(C(=O)NC(C)C)nn1Cc1ccnc(C(F)(F)F)c1 [Compound 188]
- Plant response rating, Canarygrass (canarygrass; 31 g ai/ha): 55
- Plant response rating, Canarygrass (canarygrass; 62 g ai/ha): 95
- Plant response rating, Canarygrass (canarygrass; 125 g ai/ha): 100
- Plant response rating, Canarygrass (canarygrass; 250 g ai/ha): 100
- Plant response rating, Deadnettle (deadnettle; 31 g ai/ha): 100
- Plant response rating, Deadnettle (deadnettle; 62 g ai/ha): 100
- Plant response rating, Deadnettle (deadnettle; 125 g ai/ha): 100
- Plant response rating, Deadnettle (deadnettle; 250 g ai/ha): 100
- Plant response rating, Radish, Wild (radish, wild [1]; 62 g ai/ha): 100
- Plant response rating, Radish, Wild (radish, wild [1]; 125 g ai/ha): 100
- Plant response rating, Radish, Wild (radish, wild [1]; 250 g ai/ha): 100
- Foxtail, Green plant response rating (foxtail, green; Postemergence, 31 g ai/ha): 25
- Foxtail, Green plant response rating (foxtail, green; Postemergence, 125 g ai/ha): 25
- Foxtail, Green plant response rating (foxtail, green; Postemergence, 250 g ai/ha): 55
- Foxtail, Green plant response rating (foxtail, green; postemergence, 62 g ai/ha): 25
- Pigweed plant response rating (pigweed; Postemergence, 31 g ai/ha): 40
- Pigweed plant response rating (pigweed; Postemergence, 125 g ai/ha): 60
- Pigweed plant response rating (pigweed; Postemergence, 250 g ai/ha): 80
- Pigweed plant response rating (pigweed; postemergence, 62 g ai/ha): 40
- Buckwheat, Wild plant response rating (buckwheat, wild; Postemergence, 31 g ai/ha): 60
- Buckwheat, Wild plant response rating (buckwheat, wild; Postemergence, 125 g ai/ha): 70
- Buckwheat, Wild plant response rating (buckwheat, wild; Postemergence, 250 g ai/ha): 70
- Buckwheat, Wild plant response rating (buckwheat, wild; postemergence, 62 g ai/ha): 60
- Oat, Wild plant response rating (oat, wild; Postemergence, 31 g ai/ha): 15
- Oat, Wild plant response rating (oat, wild; Postemergence, 125 g ai/ha): 25
- Oat, Wild plant response rating (oat, wild; Postemergence, 250 g ai/ha): 70
- Oat, Wild plant response rating (oat, wild; postemergence, 62 g ai/ha): 15
- Radish, Wild plant response rating (radish, wild [2]; Postemergence, 31 g ai/ha): 70
- Radish, Wild plant response rating (radish, wild [2]; Postemergence, 125 g ai/ha): 70
- Radish, Wild plant response rating (radish, wild [2]; Postemergence, 250 g ai/ha): 90
- Radish, Wild plant response rating (radish, wild [2]; postemergence, 62 g ai/ha): 70
- Plant response rating, Lambsquarters (lambsquarters; [3]): 100
- Plant response rating, Lambsquarters (lambsquarters; [4]): 100
- Plant response rating, Lambsquarters (lambsquarters; [5]): 50
- Plant response rating, Wild Poinsettia (wild poinsettia; [3]): 100
- Plant response rating, Wild Poinsettia (wild poinsettia; [4]): 100
- Plant response rating, Wild Poinsettia (wild poinsettia; [5]): 10
- Plant response rating, Fall Panicum (fall panicum; Preemergence, 16 g ai/ha, scale 0 to 100): 100
- Plant response rating, Fall Panicum (fall panicum; [3]): 100
- Plant response rating, Fall Panicum (fall panicum; [4]): 100
- Plant response rating, Fall Panicum (fall panicum; [5]): 75
- Plant response rating, Goosegrass (goosegrass; [3]): 98
- Plant response rating, Goosegrass (goosegrass; [4]): 100
- Plant response rating, Goosegrass (goosegrass; [5]): 5
- Plant response rating, Southern Sandbur (southern sandbur; [3]): 65
- Plant response rating, Southern Sandbur (southern sandbur; [4]): 100
- Plant response rating, Southern Sandbur (southern sandbur; [5]): 0
- Plant response rating, Italian Ryegrass (Italian ryegrass; [3]): 70
- Plant response rating, Italian Ryegrass (Italian ryegrass; [4]): 80
- Plant response rating, Italian Ryegrass (Italian ryegrass; [5]): 0
